This is an account of results in PubChem BioAssay AID651581 (Sanford-Burnham Center for Chemical Genomics, 2012).

In general, IC50 refers to the midpoint of a concentration-inhibition curve.

Assay [1] addresses Hypoxia-inducible factor 1-alpha (Homo sapiens) (UniProt Q16665). In words: potency against HIF reporters across cell lines – luminescence, panel, selectivity assay for HIF-2a inhibitor project, dose response (AID 651581). The following applies: human cell HIF reporter, HIF-1a.
In assay [2] the target is Endothelial PAS domain-containing protein 1 (Homo sapiens) (UniProt Q99814). Described as above. The following applies: human cell HIF reporter.

Active and inactive are the calls of the source. How the calls were made is not given here.

Sequence of Hypoxia-inducible factor 1-alpha (Homo sapiens) (Q16665 whole entry, looked up, the tested form may be a part): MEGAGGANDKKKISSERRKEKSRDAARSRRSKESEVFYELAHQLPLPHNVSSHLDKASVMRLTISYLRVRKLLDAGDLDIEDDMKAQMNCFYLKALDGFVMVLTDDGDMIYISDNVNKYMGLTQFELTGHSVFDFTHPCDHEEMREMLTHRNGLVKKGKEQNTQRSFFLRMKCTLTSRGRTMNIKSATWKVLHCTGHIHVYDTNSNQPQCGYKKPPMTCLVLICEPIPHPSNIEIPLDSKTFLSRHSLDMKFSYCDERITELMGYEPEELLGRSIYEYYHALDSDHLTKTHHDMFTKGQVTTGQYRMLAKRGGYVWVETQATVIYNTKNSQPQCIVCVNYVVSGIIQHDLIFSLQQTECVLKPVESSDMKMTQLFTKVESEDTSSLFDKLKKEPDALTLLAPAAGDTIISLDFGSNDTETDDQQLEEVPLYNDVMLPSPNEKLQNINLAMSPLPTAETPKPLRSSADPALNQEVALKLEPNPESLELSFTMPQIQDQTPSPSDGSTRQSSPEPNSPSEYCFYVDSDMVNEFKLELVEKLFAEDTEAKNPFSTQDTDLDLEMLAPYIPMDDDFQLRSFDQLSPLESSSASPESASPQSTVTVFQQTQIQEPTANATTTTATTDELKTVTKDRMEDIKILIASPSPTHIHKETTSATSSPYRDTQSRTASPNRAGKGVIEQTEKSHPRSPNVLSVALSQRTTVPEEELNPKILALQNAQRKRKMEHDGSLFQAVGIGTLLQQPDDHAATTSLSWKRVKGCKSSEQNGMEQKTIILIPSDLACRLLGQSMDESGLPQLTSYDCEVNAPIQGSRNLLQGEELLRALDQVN

Turning to `c1c2c(cc3sc(N4CCOCC4)nc13)OCCO2`, the IC50 result in assay [1] (mean of runs) is “inactive”. Further, the IC50 was 11.3 µM in assay [1] (run 1); 18 µM in assay [1] (run 2); 17.2 µM in assay [2] (HIF-2a PANC, mean of runs); 20 µM in assay [2] (HIF-2a PANC, run 1); 14.4 µM in assay [2] (HIF-2a PANC, run 2); < 30 µM (inactive) in assay [2] (HIF-2a, mean of runs). Also, the IC50 is under 30 µM in assay [2] (HIF-2a, run 1) and under 30 µM in assay [2] (HIF-2a, run 2).

As for `O=C(O)COc1ccc(-c2nccc(-c3ccccn3)n2)cc1`, the IC50 result in assay [1] (mean of runs) was “inactive”. Besides, the IC50 was 0.397 µM in assay [1] (run 1); 0.777 µM in assay [1] (run 2); 1.14 µM in assay [2] (HIF-2a PANC, mean of runs); 1.36 µM in assay [2] (HIF-2a PANC, run 1); 0.912 µM in assay [2] (HIF-2a PANC, run 2); 0.913 µM in assay [2] (HIF-2a, mean of runs). Moreover, the IC50 is 0.806 µM in assay [2] (HIF-2a, run 1) and 1.02 µM in assay [2] (HIF-2a, run 2).

For the molecule `Cc1csc(NC(=O)c2cn3ccccc3n2)n1`, the IC50 entry in assay [1] (mean of runs) is “inactive”. The IC50 in assay [1] (run 1) was 11.9 µM; in assay [1] (run 2), 12.5 µM; in assay [2] (HIF-2a PANC, mean of runs) it was 17.5 µM; in assay [2] (HIF-2a PANC, run 1) it was 20.3 µM; in assay [2] (HIF-2a PANC, run 2), 14.8 µM; in assay [2] (HIF-2a, mean of runs), 7.98 µM. The IC50 in assay [2] (HIF-2a, run 1) stood at 7.58 µM; in assay [2] (HIF-2a, run 2) it was 8.38 µM.

In the case of `Cc1nc2cc(-c3cccc(F)c3)nn2c(C)c1CCC(=O)N1CCC2(CC1)OCCO2`, the IC50 was 68.8 µM in assay [1] (mean of runs); 81.5 µM in assay [1] (run 1); 56.2 µM in assay [1] (run 2); 2.03 µM in assay [2] (HIF-2a PANC, mean of runs); 2.17 µM in assay [2] (HIF-2a PANC, run 1); 1.9 µM in assay [2] (HIF-2a PANC, run 2). Further, the IC50 in assay [2] (HIF-2a, mean of runs) was 1.27 µM; in assay [2] (HIF-2a, run 1), 1.27 µM; in assay [2] (HIF-2a, run 2), 1.28 µM.

Consider `Cc1cc(C(=O)Nc2cccc(C(=O)O)c2)oc1C`, for which the IC50 in assay [1] (run 1) was 41.9 µM; in assay [1] (run 2), over 99 µM; in assay [2] (HIF-2a PANC, mean of runs) it was > 99 µM (inactive); in assay [2] (HIF-2a PANC, run 1), over 99 µM; in assay [2] (HIF-2a PANC, run 2), over 99 µM; in assay [2] (HIF-2a, mean of runs) it was 6.46 µM. For the same molecule, the IC50 came out at 6.81 µM in assay [2] (HIF-2a, run 1) and 6.12 µM in assay [2] (HIF-2a, run 2).

Regarding `N#Cc1c(NC(=O)CSc2ncn[nH]2)sc2c1CCCCC2`, the IC50 is over 99 µM in assay [1] (run 1); 1.47 µM in assay [1] (run 2); under 0.19 µM in assay [2] (HIF-2a PANC, mean of runs); under 0.19 µM in assay [2] (HIF-2a PANC, run 1); under 10 µM in assay [2] (HIF-2a PANC, run 2); under 0.3 µM in assay [2] (HIF-2a, mean of runs). For the same molecule, the IC50 is under 0.3 µM in assay [2] (HIF-2a, run 1) and under 0.3 µM in assay [2] (HIF-2a, run 2).

Regarding `COc1ccc(OC)c(S(=O)(=O)ON2C(=O)c3ccccc3C2=O)c1`, the IC50 is over 99 µM in assay [1] (run 1); over 99 µM in assay [1] (run 2); > 99 µM (inactive) in assay [2] (HIF-2a PANC, mean of runs); over 99 µM in assay [2] (HIF-2a PANC, run 1); over 99 µM in assay [2] (HIF-2a PANC, run 2); 8.27 µM in assay [2] (HIF-2a, mean of runs). Also, the IC50 is 9.25 µM in assay [2] (HIF-2a, run 1) and 7.3 µM in assay [2] (HIF-2a, run 2).

Turning to `Cc1nc2cc(-c3ccccc3)nn2c(C)c1CCC(=O)N1CCC2(CC1)OCCO2`, the IC50 in assay [1] (mean of runs) was 53 µM; in assay [1] (run 1), 53.9 µM; in assay [1] (run 2), 52 µM; in assay [2] (HIF-2a PANC, mean of runs) it was 2.49 µM; in assay [2] (HIF-2a PANC, run 1) it was 2.63 µM; in assay [2] (HIF-2a PANC, run 2) it was 2.35 µM. The IC50 in assay [2] (HIF-2a, mean of runs) is 0.832 µM; in assay [2] (HIF-2a, run 1) it was 0.742 µM; in assay [2] (HIF-2a, run 2), 0.921 µM.

With `O=C(O)c1cccc(NC(=S)NC(=O)c2ccc3ccccc3c2)c1`, the IC50 in assay [1] (run 1) is over 99 µM; in assay [1] (run 2) it was over 99 µM; in assay [2] (HIF-2a PANC, run 1), under 30 µM; in assay [2] (HIF-2a PANC, run 2) it was over 99 µM; in assay [2] (HIF-2a, run 1), 10.9 µM; in assay [2] (HIF-2a, run 2), 9.32 µM. In addition, the IC50 entry in assay [2] (HIF-2a, mean of runs) is “inactive”.

For `Cc1ccc(C)c(S(=O)(=O)ON2C(=O)c3ccccc3C2=O)c1`, the IC50 in assay [1] (run 1) was over 99 µM; in assay [1] (run 2) it was over 99 µM; in assay [2] (HIF-2a PANC, mean of runs), > 99 µM (inactive); in assay [2] (HIF-2a PANC, run 1) it was over 99 µM; in assay [2] (HIF-2a PANC, run 2), over 99 µM; in assay [2] (HIF-2a, mean of runs), 8.46 µM. For the same molecule, the IC50 in assay [2] (HIF-2a, run 1) is 8.53 µM; in assay [2] (HIF-2a, run 2) it was 8.39 µM.

For the molecule `COc1ccc(OCc2cccc(C(=O)Nn3cc([N+](=O)[O-])cn3)c2)cc1`, the IC50 in assay [1] (run 1) was 32.1 µM; in assay [1] (run 2) it was under 30 µM; in assay [2] (HIF-2a PANC, run 1), under 30 µM; in assay [2] (HIF-2a PANC, run 2), 13.4 µM; in assay [2] (HIF-2a, run 1), 11.3 µM; in assay [2] (HIF-2a, run 2), 9.04 µM. The IC50 entry in assay [2] (HIF-2a, mean of runs) was “inactive”.

Take `Cc1c(CCC(=O)N2CCC[C@H]2C(=O)O)c(=O)oc2c(C)c3oc4c(c3cc12)CCCC4`: the IC50 in assay [1] (mean of runs) was 44.7 µM; in assay [1] (run 1) it was 72.4 µM; in assay [1] (run 2), 17 µM; in assay [2] (HIF-2a PANC, mean of runs), 1.72 µM; in assay [2] (HIF-2a PANC, run 1), 1.8 µM; in assay [2] (HIF-2a PANC, run 2) it was 1.64 µM. The IC50 in assay [2] (HIF-2a, mean of runs) was 4.13 µM; in assay [2] (HIF-2a, run 1) it was 4.63 µM; in assay [2] (HIF-2a, run 2) it was 3.63 µM.

In the case of `C/C(=N/NC(=O)c1cc(C2CC2)[nH]n1)c1cccs1`, the IC50 result in assay [1] (mean of runs) was “inactive”. Further, the IC50 in assay [1] (run 1) is 24.8 µM; in assay [1] (run 2) it was 21.7 µM; in assay [2] (HIF-2a PANC, run 1), over 99 µM; in assay [2] (HIF-2a PANC, run 2) it was under 30 µM; in assay [2] (HIF-2a, mean of runs), < 30 µM (inactive); in assay [2] (HIF-2a, run 1) it was under 30 µM. Further, in assay [2] (HIF-2a, run 2), the IC50 was under 30 µM.
